Source: PubChem BioAssay (NCI)
Where “and” joins values, the source holds several entries; their conditions need not be identical. Equal values may be shown once.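 Exposure lasted 48 hours, with cells grown in 96-well plates and compounds tested at five concentrations. Abbreviation: GI50, concentration required for 50% inhibition of growth. TGI: concentration producing complete growth inhibition.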

Assays:
Test in all cases: NCI tumour cell line growth inhibition, 48 h
COLO 205 colon = test system: COLO 205 colon
HCT-15 colon = test system: HCT-15 colon
MCF7 breast = test system: MCF7 breast
NCI-H226 lung = test system: NCI-H226 lung
P388/ADR leukemia = test system: P388/ADR leukemia
SN12K1 renal = test system: SN12K1 renal
SNB-78 CNS = test system: SNB-78 CNS
U251 CNS = test system: U251 CNS
A498 renal = test system: A498 renal
BT-549 breast = test system: BT-549 breast
DU-145 prostate = test system: DU-145 prostate
MDA-MB-231 breast = test system: MDA-MB-231 breast
MDA-MB-435 = test system: MDA-MB-435
MDA-N = test system: MDA-N
PC-3 prostate = test system: PC-3 prostate
LXFL 529 NSCLC = test system: LXFL 529 NSCLC

SMILES	TGI (COLO 205 colon)	TGI (HCT-15 colon)	TGI (MCF7 breast)	TGI (NCI-H226 lung)	TGI (P388/ADR leukemia) [µM]	TGI (SN12K1 renal)	TGI (SNB-78 CNS) [µM]	TGI (U251 CNS)	TGI (A498 renal) [µM]	TGI (BT-549 breast) [µM]	TGI (DU-145 prostate) [µM]	TGI (MDA-MB-231 breast) [µM]	TGI (MDA-MB-435) [µM]	TGI (MDA-N) [µM]	TGI (PC-3 prostate) [µM]	GI50 (COLO 205 colon) [µM]	GI50 (HCT-15 colon) [µM]	GI50 (MCF7 breast) [µM]	GI50 (NCI-H226 lung) [µM]	TGI (LXFL 529 NSCLC) [µM]
CCCCCCCC/C=C\CCCCCCCCCCCC(=O)O	40.4 µM	122 µM	33.8 µM	107 µM	36.3	52.4 µM	> 115	110 µM												
N=c1nnc2ccc(Cl)cc2n1O	64.5 µM	> 100 µM	> 100 µM	> 100 µM				> 100 µM	> 100	> 100	> 100	> 100	> 100	> 100	> 100					
O=C1C=C[C@@H](COC2OC(CO)C(O)C(O)C2O)O1 (some centres not stated)	14.4 µM and 19.5 µM	21.5 µM and 16.4 µM	3.81 µM and 19.6 µM	48.9 µM and 96.9 µM	1.82	28.9 µM and 29.2 µM		31 µM and 30.9 µM	30.6							3.44	3.22	1.24	17.6	
Nc1c(S(=O)(=O)O)cc2cc(S(=O)(=O)O)ccc2c1N=Nc1ccc(-c2ccc(N=Nc3c(N)c(S(=O)(=O)O)cc4cc(S(=O)(=O)O)ccc34)c(S(=O)(=O)O)c2)cc1	> 100 µM	> 100 µM	51.4 µM	> 100 µM	> 100	> 100 µM	> 100	> 100 µM	> 100											
CCN(CC)CCNC(=O)c1cc2cc(NC(=O)c3cc4cc([N+](=O)[O-])ccc4[nH]3)ccc2[nH]1	28.9 µM	> 100 µM	> 100 µM	> 87.3 µM					> 82.7	> 100	31.8	> 100	> 100	> 100	> 100					
Cc1ccc(NC(=O)CC2Sc3ccccc3NC2=O)cc1C (configuration not stated)	> 100 µM	> 100 µM		> 100 µM			> 100	> 100 µM	> 100											> 100
Nc1nc(SCCC/C=C/I)nc2c1ncn2C1OC(COP(=O)(O)O)C(O)C1O (configuration not stated)	> 100 µM	> 100 µM		> 100 µM			> 100	> 100 µM	> 100											> 100
N#C/C(=C1/Sc2c(nc[nH]c2=O)N1c1ccccc1)c1nc2ccccc2[nH]1	> 100 µM	> 100 µM					> 100	> 100 µM	> 100											> 100
Oc1ccc(-c2nc3ccc(Br)cc3s2)cc1	33.7 µM	67.5 µM	74.5 µM	39.9 µM				50.8 µM		44.7	36.7	45	53.4	> 100	54.8					
CC1=C(Cl)C=CP(=O)(Oc2ccccc2)C1 (configuration not stated)	> 100 µM	> 100 µM					> 100	> 100 µM												28.7
COc1ccc(/C=c2\sc3n(c2=O)CCN=3)cc1		> 100 µM					> 100	> 100 µM												> 100
